From paper PMC10823514, “Target Identification of a Class of Pyrazolone Protein Aggregation Inhibitor Therapeutics for Amyotrophic Lateral Sclerosis” (ACS Central Science, 2023)
Entries after “also recorded” stand apart in the source; their conditions may differ. Read-outs that look alike come from different tables or passages of the source. One block for each compound: values may come before it.

Key:
PC12 SOD1^G93A cells [1] = test: Neuroprotection against MG-132-induced toxicity in PC12 cells expressing mutant SOD1^G93A (calcein-AM viability); assay type: cell-based; details: Rattus norvegicus, PC-12, MG-132-induced toxicity, inactive photoreactive controls, read-out: EC50
Protocol: With this information in hand, we implemented a phenotypic drug discovery approach to identify a novel therapeutic for treating ALS. The study employed a rat PC12 cell-based assay that expresses SOD1^G93A mutation for screening a chemical library of more than 50,000 compounds to identify promising hits (Figure 1 compounds 3 and 4). The hits are based on attenuating proteasome inhibitor MG-132-induced SOD1^G93A cellular toxicity.
Viability EC50 values were determined according to the previously reported assay procedure.[43] Briefly, PC12 cells were seeded at 15,000 cells/well in 96-well plates, and the medium was changed to remove the doxycycline 4 days prior to compound addition. Compounds were assayed in 12-point dose–response experiments to determine the potency and efficacy. The highest compound concentration tested was 32 μM, which was decreased by half with each subsequent dose. After a 24 h incubation with the analytes, MG-132 (400 nM) was added and the cells were incubated at 37 °C for 24 h. The cells were washed twice with PBS. Calcein-AM was added at a final concentration of 1 μM for 20 min at room temperature, and the fluorescence intensity was read in a POLARstar fluorescence plate reader (BMG). EC50 values were determined by standardizing fluorescent signal to DMSO treated controls. […] The presented data represent the mean average of duplicate experiments.

[2] = molecular target: T1, 25 kDa protein band in PC12 SOD1^G93A cells (Rattus norvegicus, UniProt P62260); test: Competition of PRAPP photoaffinity labeling of the 25 kDa band in PC12-SOD1^G93A cells; assay type: binding; details: for concentration-dependent disappearance of the 25 kDa protein band in competition with PRAPP: scenario 1
T1 construct: we identified a 25 kDa covalently modified protein band in the PC12 SOD1^G93A cell line; endogenous in cells; host or cells: PC12-SOD1^G93A cells (live-cell UV photolabeling, then lysis)
T1 sequence (P62260 1-255): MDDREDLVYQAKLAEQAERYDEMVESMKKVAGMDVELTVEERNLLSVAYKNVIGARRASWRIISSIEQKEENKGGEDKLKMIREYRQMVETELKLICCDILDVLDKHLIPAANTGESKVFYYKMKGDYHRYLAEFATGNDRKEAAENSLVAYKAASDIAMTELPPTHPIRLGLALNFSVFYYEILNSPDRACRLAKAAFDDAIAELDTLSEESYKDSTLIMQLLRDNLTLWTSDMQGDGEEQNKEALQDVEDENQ
Protocol: PC12-SOD1^G93A cells were cultured and grown to 90% confluency (in 6-well plates) and washed once with PBS followed by the addition of serum medium containing the appropriate analyte at the indicated concentrations. Three incubation scenarios were studied (at 37 °C): Scenario 1) 12 h preincubation with PRAPP in the absence of MG-132; Scenario 2) 12 h preincubation with PRAPP in the absence of MG-132 followed by an additional 24 h incubation (control); and Scenario 3) 12 h preincubation with PRAPP followed by the addition of MG-132 (100 nM) and an additional 24 h incubation. After incubation, the medium was discarded and cells were washed with PBS (1 × 300 μL). Fresh serum-free medium was added, and the cells were irradiated with UV light (312 nm, 120 V, 60 Hz, 0.2 A [Spectroline model EB-160C], distance ∼4 cm) for 15 min. The medium was removed, cells were washed with PBS (2 × 500 μL), and 200 μL of lysis buffer containing Tris HCl (25 mM, pH 7.6), NaCl (150 mM), 1% NP40, 1% sodium deoxycholate, 0.1% SDS, and protease inhibitor cocktail (Sigma-Aldrich, 1:100 v/v) was added to each well. Complete lysis was observed by a microscope after 10 min at 4 °C with agitation. Each lysate was centrifuged at 4 °C for 5 min at 13,000 rpm, and the resulting supernatant was concentrated with a centrifugal filter (Amicon Ultra Centrifugal Filters 3K cutoff, Millipore), normalized to 1.0 mg/mL by the Bradford assay, and analyzed immediately or stored at −80 °C for subsequent analysis.
In a darkened (wrapped with aluminum foil) Eppendorf tube, each lysate (30 μL [30 μg]) was incubated with 10 μL of the freshly prepared “click” premix containing CuSO4 (5 mM), sodium ascorbate (5 mM), TBTA (200 μM), and N3–Alexa-647 (50 μM) were added to PBS (50 mM, pH 7.4). The corresponding final concentrations within the lysate click incubation were: CuSO4 (1.25 mM), sodium ascorbate (1.25 mM), TBTA (50 μM), and N3–Alexa-647 (12.5 μM). The mixture was vortexed briefly and incubated for 1.5 h at 37 °C in the dark. NuPAGE LDS sample loading buffer (4 × 13 μL) was added, and the mixture was denatured in boiling water for 10 min. SDS-PAGE was performed on Novex Bis-Tris gel 4–12% with MES SDS running buffer (90 V constant for 30 min followed by 100 V for 90 min; load volume = 25 μL). Protein standards that gave appropriate visible and fluorescent bands for our application included the BioRad Precision Plus All Blue Protein Standard and Novex Pre-Stained Protein Standard. In-gel fluorescence was monitored (excitation λ = 635 nm; emission λ = 670 nm) using a Typhoon 9400 (GE Healthcare) fluorimager. Densitometric analysis and image refinement were carried out as needed using ImageJ software (NIH, open source). The contrast and brightness of images were modified using ImageJ and/or Microsoft Word to enhance visualization for publication purposes.

14-3-3-E = molecular target: T2, 14-3-3-E (Homo sapiens, UniProt P62258); test: Fluorescent thermal shift assay (FTSA) with 14-3-3-E; assay type: binding; details: SYPRO orange
T2 construct: His-tag (TEV-cleavable) (cleaved yes); host or cells: E. coli (BL21)
T2 sequence (P62258 1-255): T1 sequence (P62260 1-255)
Protocol: His-tagged 14-3-3-E, B, and H plasmids were purchased from Addgene (plasmid ID# 31562, 39128, and 38814, respectively). E. coli (BL21) were transformed with extracted plasmids via heat shock and plated on selected media. Individual colonies were selected, grown, and sequenced to confirm gene presence. 1 L cultures were grown to an OD600 of 0.6 at 37 °C and 220 rpm. Protein expression was induced with 1 mM IPTG and expressed for 12 h at 100 rpm and room temperature (approximately 25 °C). Cells were spun down at 4000 rpm for 15 min at 4 °C and resuspended in lysis buffer containing 50 mM Tris (7.4), 150 mM NaCl, 0.08% DDM, 5 mM imidazole, and 5% glycerol (with an EDTA-free complete mini protease inhibitor cocktail). Cells were lysed via sonication, and the lysate was separated from cell debris by centrifugation at 15,000 rpm, 4 °C, for 45 min. The His-tagged protein was purified using QIAGEN Ni-NTA superflow columns, and the His-tag was removed with TEV protease. His-tag-removed proteins were further purified by size exclusion chromatography. His tag removal and size exclusion chromatography purification were done at the Northwestern University Protein Production core. 14-3-3-Q and 14-3-3-G proteins were purchased from Abchem (catalog numbers ab85270 and ab53869, respectively).
All of the FTSA experiments were conducted in HEPES buffer (60 mM HEPES, 150 mM NaCl, pH 7.4). A DMSO balanced 8-point dilution series of the compound in HEPES buffer was prepared in a 96-well assay plate (200, 100, 50, 25, 12.5, 6.25, 3.125, and 0 μM). Then, a 5 μL volume of the dilution series was transferred to a 384-well PCR plate using a multichannel pipet, and the plate was centrifuged at 1000 rpm for 2 min (the plate was covered with an adhesive aluminum seal). The protein sample was premixed at a concentration of 0.04 μg/μL with a 5X concentration of SYPRO orange in HEPES buffer, and a 5 μL aliquot was added to the compound wells. The plate was covered with an optical adhesive seal and was shaken for 2 min, followed by centrifugation at 1000 rpm for 2 min. The thermal scan was performed from 20 to 90 °C with a temperature gradient of 0.5 °C/min. The fluorescence was measured on a Bio-Rad CFX384 real-time PCR instrument.

PC12 SOD1^G93A cells [3] = details: neuroprotection against MG-132-induced SOD1^G93A toxicity in PC12 cells, cited from earlier work
[4] = test system: 25 kDa covalently modified band in HAP1 cells; test: Photoaffinity labeling with HAP1 wild-type and Hsp27 knockout cells; assay type: binding; details: wild-type (WT) HAP1 cells
Source text: First, we conducted photoaffinity labeling studies with wild-type (WT) HAP1 cells to verify the existence of the 25 kDa covalent modification that we observed in PC12 cells.
Figure 7 Photoaffinity Labeling Experiments with HAP1 cells. […] The nonspecific background modifications remain unchanged with increasing concentration of P3, further confirming the 25 kDa covalently modified band as a true target; (B) comparison of the photoaffinity labeling experiments with HAP1 wild-type (WT) cells and Hsp27 knockout (KO) cells at 15 μM PRAPP concentration.

[5] = design: method as in PMID 23828940; details: cell lysate, original CETSA protocol; cited from earlier work
[6] = hits and leads of the authors' earlier work, read-out: EC50

Structure (SMILES): C#CCN(Cc1c(F)c(F)c(N=[N+]=[N-])c(F)c1F)Cc1cc(=O)n(C(C)=O)n1C(C)=O [IPC1, 1,1′-(5-(((4-Azido-2,3,5,6-tetrafluorobenzyl)(prop-2-yn-1-yl)amino)methyl)-3-oxo-1H-pyrazole-1,2(3H)-diyl)bis(ethan-1-one)]
EC50 (PC12 SOD1^G93A cells [1]): > 16000 nM

Structure (SMILES): C#CCNCc1c(F)c(F)c(N=[N+]=[N-])c(F)c1F [IPC2, N-(4-Azido-2,3,5,6-tetrafluorobenzyl)prop-2-yn-1-amine]
EC50 (PC12 SOD1^G93A cells [1]): > 16000 nM

Structure (SMILES): CC(Oc1cc(C(F)(F)F)cc(C(F)(F)F)c1)C1CC(=O)CC(=O)C1 (stereo not drawn) [P1]
concentration-dependent disappearance of the 25 kDa protein band in competition with PRAPP ([2]; 30 μM PRAPP): not compete out the 25 kDa covalently modified band in a concentration -dependent manner; also recorded: did not show a quantifiable concentration-dependent disappearance
25 kDa band intensity in competition with PRAPP ([2]; 480 μM P1 concentration): slight reduction of the 25 kDa band intensity
Tm shift (ΔTm) (14-3-3-E): did not show a Tm shift
EC50 (PC12 SOD1^G93A cells [3]; [6]): 300 nM

competitor to PRAPP ratio at complete disappearance of the band ([2]; 30 μM PRAPP): 32
EC50 ([2]; 30 μM PRAPP, scenario 1, n = 2, read-out: EC50 for the competition with PRAPP (25 kDa band intensity)): 26700 nM
Structure (SMILES): CN(Cc1cc(Cl)cc(Cl)c1)Cc1cc(=O)[nH][nH]1 [P3]
EC50 (PC12 SOD1^G93A cells [3]; leads of the authors' earlier work, read-out: EC50 (NP = neuroprotection)): 400 nM
competition of PRAPP labeling, band 1 around 25 kDa [4]: concentration-dependent disappearance

Structure (SMILES): O=C1CC(=O)CC(c2ccc(F)cc2)C1 [compound 3]
EC50 (PC12 SOD1^G93A cells [3]; [6]): 800 nM

Structure (SMILES): Cc1cc(SCc2cc(=O)[nH][nH]2)c(C)cc1Cl [compound 4]
EC50 (PC12 SOD1^G93A cells [3]; [6]): 400 nM

Structure (SMILES): CC1=NN(c2ccccc2)C(=O)C1 [edaravone, reference compound]
concentration-dependent disappearance of the 25 kDa protein band in competition with PRAPP ([2]; 30 μM PRAPP): did not show a quantifiable concentration-dependent disappearance

Structure (SMILES): CN(Cc1cnc2nc(N)nc(N)c2n1)c1ccc(C(=O)N[C@@H](CCC(=O)O)C(=O)O)cc1 [methotrexate]
drug concentration of maximum response in ITDR CETSA [5]: 100 to 250 µM

Structure (SMILES): Cc1nc2ccc(CN(C)c3ccc(C(=O)N[C@@H](CCC(=O)O)C(=O)O)s3)cc2c(=O)[nH]1 [raltitrexed]
drug concentration of maximum response in ITDR CETSA [5]: 100 to 250 µM
